Publication PMC8635029 (Frontiers in Pharmacology, 2021)

Assays:
[1] = target: T1, Nicotinic Acetylcholine α1, Bungarotoxin (Homo sapiens, UniProt P02708+P07510+Q07001); assay: In vitro SafetyScreen panel; assay type: binding
T1 construct: Eurofins Discovery (outsourced panel) PP223

[2] = In vivo brain/plasma distribution in rats; details: rat, iv, SD rats, single 0.3 mg/kg i.v., read-out: brain/plasma concentration ratio
Experimental: SD rats (half male and half female) were intravenously given a single dose of 0.3 mg/kg HSK21542. The samples were collected at 0.083, 0.5, 1.5 and 4 h after dosing. The rats were anesthetized with isoflurane and then sacrificed by taking blood from the abdominal aorta. The whole brains were rapidly removed from the crania. The plasma (∼100 μL) was separated from the blood by centrifugating at 2000 ×g for 10 min at 4°C. The brains were rinsed with ice-cold normal saline, blotted dry, weighted and placed into a plastic tube. For 1.0 g of brain sample, 4 ml of acetonitrile-ultrapure water solution (1:4, v/v) was added to the tube. The brain samples were then homogenized for 120 s at 50 Hz and ultrasound was performed for 5 min. The plasma and the brain samples were analyzed using a LC-MS/MS assay as detailed in supplementary materials.
The plasma or brain homogenate was ice thawed. […] The resulting solution was then analyzed to determine the concentrations of HSK21542 on a LC-MS/MS system, which consisted of a DGU-20A5R degasser, a LC-30AD pump, a SIL-30AC autosampler, a CTO-20A column oven (Shimadzu, Japan) and an AB Sciex Triple Quad 5500 mass spectrometer (Sciex, Canada). […] Quantification was conducted in positive ion mode. The MRM transition of m/z 704.4→295.2 was used to quantify HSK21542.

[3] = target: T2, Cholecystokinin CCK2 (CCKB) (Homo sapiens, UniProt P32239); assay: In vitro SafetyScreen panel; assay type: binding
T2 construct: Eurofins Discovery (contract panel) PP223
Experimental: (§1) In vitro off-target pharmacological activities of HSK21542 were evaluated on 86 targets using a SafetyScreen panel (Item PP223, target selectivity panel) and the corresponding methods could be found at https://www.eurofinsdiscoveryservices.com/.

[4] = target: T3, Serotonin (5-Hydroxytryptamine) 5-HT1B (Homo sapiens, UniProt P28222); assay: In vitro SafetyScreen panel; assay type: binding
T3 construct: Eurofins Discovery (outsourced panel) PP223
Experimental: as §1

Adenosine A1 = target: T4, Adenosine A1 (Homo sapiens, UniProt P30542); assay: In vitro SafetyScreen panel; assay type: binding
T4 construct: Eurofins Discovery (contract panel) PP223
Experimental: as §1

Dopamine D1 = target: T5, Dopamine D1 (Homo sapiens, UniProt P21728); assay: In vitro SafetyScreen panel; assay type: binding
T5 construct: Eurofins Discovery (contract panel) Item PP223
Experimental: as §1

Chemokine CXCR2 (IL-8RB) = target: T6, Chemokine CXCR2 (IL-8RB) (Homo sapiens, UniProt P25025); assay: In vitro SafetyScreen panel; assay type: binding
T6 construct: Eurofins Discovery (contract panel) PP223
Experimental: as §1

[5] = target: T7, Platelet Activating Factor (PAF) (Homo sapiens, UniProt P25105); assay: In vitro SafetyScreen panel; assay type: binding
T7 construct: Eurofins Discovery (outsourced panel) PP223
Experimental: as §1

Adrenergic α2A = target: T8, Adrenergic α2A (Homo sapiens, UniProt P08913); assay: In vitro SafetyScreen panel; assay type: binding
T8 construct: Eurofins Discovery (contract panel) PP223
Experimental: as §1

Adenosine A2A = target: T9, Adenosine A2A (Homo sapiens, UniProt P29274); assay: In vitro SafetyScreen panel; assay type: binding
T9 construct: Eurofins Discovery (contract panel) PP223
Experimental: as §1

Histamine H1 = target: T10, Histamine H1 (Homo sapiens, UniProt P35367); assay: In vitro SafetyScreen panel; assay type: binding
T10 construct: Eurofins Discovery (contract panel) Item PP223
Experimental: as §1

Muscarinic M3 = target: T11, Muscarinic M3 (Homo sapiens, UniProt P20309); assay: In vitro SafetyScreen panel; assay type: binding
T11 construct: Eurofins Discovery (outsourced panel) PP223
Experimental: as §1

[6] = target: T12, Transporter, Dopamine (DAT) (Homo sapiens, UniProt Q01959); assay: In vitro SafetyScreen panel; assay type: binding
T12 construct: Eurofins Discovery (contract panel) PP223
Experimental: as §1

Adrenergic α1B = target: T13, Adrenergic α1B (Rattus norvegicus, UniProt P15823); assay: In vitro SafetyScreen panel; assay type: binding
T13 construct: Eurofins Discovery (contract panel) PP223
Experimental: as §1

Angiotensin AT1 = target: T14, Angiotensin AT1 (Homo sapiens, UniProt P30556); assay: In vitro SafetyScreen panel; assay type: binding
T14 construct: Eurofins Discovery (contract panel) PP223
Experimental: as §1

Opiate μ (OP3, MOP) = target: T15, Opiate μ (OP3, MOP) (Homo sapiens, UniProt P35372); assay: In vitro SafetyScreen panel; assay type: binding
T15 construct: Eurofins Discovery (outsourced panel) PP223
Experimental: as §1

Muscarinic M4 = target: T16, Muscarinic M4 (Homo sapiens, UniProt P08173); assay: In vitro SafetyScreen panel; assay type: binding
T16 construct: Eurofins Discovery (outsourced panel) PP223
Experimental: as §1

[7] = target: T17, Transporter, Serotonin (5-Hydroxytryptamine) (SERT) (Homo sapiens, UniProt P31645); assay: In vitro SafetyScreen panel; assay type: binding
T17 construct: Eurofins Discovery (contract panel) PP223
Experimental: as §1

Adrenergic β2 = target: T18, Adrenergic β2 (Homo sapiens, UniProt P07550); assay: In vitro SafetyScreen panel; assay type: binding
T18 construct: Eurofins Discovery (contract panel) PP223
Experimental: as §1

PPARγ = target: T19, PPARγ (Homo sapiens, UniProt P37231); assay: In vitro SafetyScreen panel; assay type: binding
T19 construct: Eurofins Discovery (outsourced panel) PP223
Experimental: as §1

Potassium Channel hERG = target: T20, Potassium Channel hERG (Homo sapiens, UniProt Q12809); assay: In vitro SafetyScreen panel; assay type: binding
T20 construct: Eurofins Discovery (outsourced panel) PP223
Experimental: as §1

[8] = target: T21, Transporter, Norepinephrine (NET) (Homo sapiens, UniProt P23975); assay: In vitro SafetyScreen panel; assay type: binding
T21 construct: Eurofins Discovery (contract panel) PP223
Experimental: as §1

Opiate δ1 (OP1, DOP) = target: T22, Opiate δ1 (OP1, DOP) (Homo sapiens, UniProt P41143); assay: In vitro SafetyScreen panel; assay type: binding
T22 construct: Eurofins Discovery (outsourced panel) PP223
Experimental: as §1

Chemokine CCR1 = target: T23, Chemokine CCR1 (Homo sapiens, UniProt P32246); assay: In vitro SafetyScreen panel; assay type: binding
T23 construct: Eurofins Discovery (contract panel) PP223
Experimental: as §1

Progesterone PR-B = target: T24, Progesterone PR-B (Homo sapiens, UniProt P06401); assay: In vitro SafetyScreen panel; assay type: binding
T24 construct: Eurofins Discovery (outsourced panel) PP223
Experimental: as §1

[9] = target: T25, Peptidase, Angiotensin Converting Enzyme (Oryctolagus cuniculus, UniProt P12822); assay: In vitro SafetyScreen panel; assay type: biochemical, rabbit
T25 construct: Eurofins Discovery (outsourced panel) PP223
Experimental: as §1

T8 sequence (P08913 whole entry): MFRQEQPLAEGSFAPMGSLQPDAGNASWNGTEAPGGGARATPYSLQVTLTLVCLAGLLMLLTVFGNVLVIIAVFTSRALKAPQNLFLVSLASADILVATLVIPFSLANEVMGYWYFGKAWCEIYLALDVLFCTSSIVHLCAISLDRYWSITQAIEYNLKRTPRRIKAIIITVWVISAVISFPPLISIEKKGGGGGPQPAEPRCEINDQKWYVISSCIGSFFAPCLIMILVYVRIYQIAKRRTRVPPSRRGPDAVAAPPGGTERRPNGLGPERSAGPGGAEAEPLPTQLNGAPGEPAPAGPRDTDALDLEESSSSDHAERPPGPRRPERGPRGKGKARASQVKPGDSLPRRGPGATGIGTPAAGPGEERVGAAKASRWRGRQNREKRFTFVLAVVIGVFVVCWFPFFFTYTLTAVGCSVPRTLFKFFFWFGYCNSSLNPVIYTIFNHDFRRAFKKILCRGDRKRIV
T9 sequence (P29274 whole entry): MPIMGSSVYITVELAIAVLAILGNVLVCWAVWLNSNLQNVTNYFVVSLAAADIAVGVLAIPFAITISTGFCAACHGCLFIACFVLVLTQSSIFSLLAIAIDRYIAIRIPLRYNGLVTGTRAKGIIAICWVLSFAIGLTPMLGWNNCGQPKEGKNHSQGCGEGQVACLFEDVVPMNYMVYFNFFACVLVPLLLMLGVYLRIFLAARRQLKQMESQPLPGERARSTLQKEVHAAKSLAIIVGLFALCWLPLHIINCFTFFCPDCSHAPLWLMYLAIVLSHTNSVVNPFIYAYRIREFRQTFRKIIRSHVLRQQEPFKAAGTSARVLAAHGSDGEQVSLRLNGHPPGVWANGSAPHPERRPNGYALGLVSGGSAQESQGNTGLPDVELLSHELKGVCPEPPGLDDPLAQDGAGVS
T21 sequence (P23975 whole entry): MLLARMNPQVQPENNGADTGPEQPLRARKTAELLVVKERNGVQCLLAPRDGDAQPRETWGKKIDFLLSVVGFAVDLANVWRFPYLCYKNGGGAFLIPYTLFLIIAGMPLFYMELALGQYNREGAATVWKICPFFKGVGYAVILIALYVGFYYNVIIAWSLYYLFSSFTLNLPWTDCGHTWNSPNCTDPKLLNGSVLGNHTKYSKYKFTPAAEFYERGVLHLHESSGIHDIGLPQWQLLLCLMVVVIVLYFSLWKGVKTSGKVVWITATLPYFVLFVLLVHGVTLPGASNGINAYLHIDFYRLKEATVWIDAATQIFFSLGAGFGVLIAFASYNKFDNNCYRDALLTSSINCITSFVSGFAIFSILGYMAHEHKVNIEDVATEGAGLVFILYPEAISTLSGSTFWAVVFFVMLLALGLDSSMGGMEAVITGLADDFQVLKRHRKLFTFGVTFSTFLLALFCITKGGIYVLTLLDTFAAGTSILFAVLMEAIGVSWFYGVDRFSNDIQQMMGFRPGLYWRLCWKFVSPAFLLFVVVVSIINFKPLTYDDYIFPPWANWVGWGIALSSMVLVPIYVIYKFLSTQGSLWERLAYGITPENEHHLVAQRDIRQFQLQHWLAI
T6 sequence (P25025 whole entry): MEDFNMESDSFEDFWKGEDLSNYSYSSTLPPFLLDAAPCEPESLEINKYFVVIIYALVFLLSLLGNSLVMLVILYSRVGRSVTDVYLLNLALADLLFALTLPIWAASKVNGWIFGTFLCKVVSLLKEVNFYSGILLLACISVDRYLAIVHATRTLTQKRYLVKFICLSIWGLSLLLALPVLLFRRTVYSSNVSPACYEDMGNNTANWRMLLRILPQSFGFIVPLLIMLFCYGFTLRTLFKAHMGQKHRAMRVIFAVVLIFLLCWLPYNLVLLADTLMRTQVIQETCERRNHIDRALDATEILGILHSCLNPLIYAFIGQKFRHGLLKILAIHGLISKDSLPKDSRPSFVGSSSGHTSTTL
T14 sequence (P30556 whole entry): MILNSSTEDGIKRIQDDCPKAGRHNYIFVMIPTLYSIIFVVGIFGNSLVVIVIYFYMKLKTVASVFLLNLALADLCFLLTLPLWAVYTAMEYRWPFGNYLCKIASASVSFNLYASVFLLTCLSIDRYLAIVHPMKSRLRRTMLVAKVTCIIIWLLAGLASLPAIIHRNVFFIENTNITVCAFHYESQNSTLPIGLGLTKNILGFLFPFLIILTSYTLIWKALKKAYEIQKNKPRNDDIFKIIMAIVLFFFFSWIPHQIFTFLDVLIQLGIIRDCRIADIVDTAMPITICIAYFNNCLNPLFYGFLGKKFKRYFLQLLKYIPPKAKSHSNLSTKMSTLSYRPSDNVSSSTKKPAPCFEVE
T13 sequence (P15823 whole entry): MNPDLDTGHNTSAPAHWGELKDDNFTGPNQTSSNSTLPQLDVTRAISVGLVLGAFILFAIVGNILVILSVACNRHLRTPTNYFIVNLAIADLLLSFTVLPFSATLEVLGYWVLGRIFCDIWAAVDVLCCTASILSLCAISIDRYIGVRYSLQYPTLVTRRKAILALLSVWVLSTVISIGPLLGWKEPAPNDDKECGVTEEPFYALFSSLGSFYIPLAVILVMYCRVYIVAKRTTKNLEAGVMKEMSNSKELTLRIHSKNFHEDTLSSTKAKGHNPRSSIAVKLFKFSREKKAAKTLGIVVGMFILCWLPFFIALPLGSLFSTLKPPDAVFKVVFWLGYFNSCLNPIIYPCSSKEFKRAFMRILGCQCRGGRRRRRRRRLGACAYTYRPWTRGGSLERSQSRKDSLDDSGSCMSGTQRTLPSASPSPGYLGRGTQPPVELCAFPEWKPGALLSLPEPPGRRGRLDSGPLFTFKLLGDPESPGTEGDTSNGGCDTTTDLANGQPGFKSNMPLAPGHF
T16 sequence (P08173 whole entry): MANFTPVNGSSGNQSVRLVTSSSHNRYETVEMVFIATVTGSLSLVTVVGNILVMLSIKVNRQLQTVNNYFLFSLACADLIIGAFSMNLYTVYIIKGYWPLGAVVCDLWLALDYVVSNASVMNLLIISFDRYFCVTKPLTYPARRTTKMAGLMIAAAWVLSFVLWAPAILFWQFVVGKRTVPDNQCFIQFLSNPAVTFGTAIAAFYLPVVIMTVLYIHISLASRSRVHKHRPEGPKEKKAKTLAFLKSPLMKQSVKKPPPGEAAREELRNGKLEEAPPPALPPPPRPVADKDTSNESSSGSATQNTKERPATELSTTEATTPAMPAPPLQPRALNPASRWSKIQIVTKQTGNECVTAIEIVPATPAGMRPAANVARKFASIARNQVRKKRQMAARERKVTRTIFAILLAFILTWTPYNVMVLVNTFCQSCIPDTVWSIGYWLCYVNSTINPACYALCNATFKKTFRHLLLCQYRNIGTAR
T18 sequence (P07550 whole entry): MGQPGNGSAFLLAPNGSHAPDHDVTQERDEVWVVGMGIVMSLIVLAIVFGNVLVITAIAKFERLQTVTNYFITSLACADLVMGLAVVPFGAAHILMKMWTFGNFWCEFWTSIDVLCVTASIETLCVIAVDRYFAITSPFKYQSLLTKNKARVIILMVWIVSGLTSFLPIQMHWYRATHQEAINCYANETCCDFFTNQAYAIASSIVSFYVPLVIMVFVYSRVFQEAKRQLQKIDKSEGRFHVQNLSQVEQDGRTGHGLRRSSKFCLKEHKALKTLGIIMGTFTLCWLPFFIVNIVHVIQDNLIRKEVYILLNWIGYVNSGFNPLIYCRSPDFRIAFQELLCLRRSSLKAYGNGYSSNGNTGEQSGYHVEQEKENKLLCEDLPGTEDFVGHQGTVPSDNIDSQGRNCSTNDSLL
T7 sequence (P25105 whole entry): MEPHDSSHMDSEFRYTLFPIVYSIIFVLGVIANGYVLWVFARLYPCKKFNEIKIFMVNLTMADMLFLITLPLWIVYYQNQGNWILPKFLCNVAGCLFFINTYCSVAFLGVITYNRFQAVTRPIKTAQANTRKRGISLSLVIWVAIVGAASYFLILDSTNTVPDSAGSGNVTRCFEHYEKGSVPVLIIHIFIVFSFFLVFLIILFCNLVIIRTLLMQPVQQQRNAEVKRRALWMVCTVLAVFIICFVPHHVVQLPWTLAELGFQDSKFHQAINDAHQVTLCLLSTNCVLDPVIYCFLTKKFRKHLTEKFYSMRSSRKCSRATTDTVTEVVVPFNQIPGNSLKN
T3 sequence (P28222 whole entry): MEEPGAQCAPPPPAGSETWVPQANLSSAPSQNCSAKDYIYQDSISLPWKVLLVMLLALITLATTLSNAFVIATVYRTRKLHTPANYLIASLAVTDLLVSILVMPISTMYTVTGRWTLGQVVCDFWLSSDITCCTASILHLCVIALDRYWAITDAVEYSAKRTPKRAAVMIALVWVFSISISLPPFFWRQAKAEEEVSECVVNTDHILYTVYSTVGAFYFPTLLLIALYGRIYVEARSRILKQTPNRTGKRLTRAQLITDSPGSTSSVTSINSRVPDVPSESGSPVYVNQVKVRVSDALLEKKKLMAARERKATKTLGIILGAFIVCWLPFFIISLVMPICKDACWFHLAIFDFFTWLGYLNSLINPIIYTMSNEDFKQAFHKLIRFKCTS
T22 sequence (P41143 whole entry): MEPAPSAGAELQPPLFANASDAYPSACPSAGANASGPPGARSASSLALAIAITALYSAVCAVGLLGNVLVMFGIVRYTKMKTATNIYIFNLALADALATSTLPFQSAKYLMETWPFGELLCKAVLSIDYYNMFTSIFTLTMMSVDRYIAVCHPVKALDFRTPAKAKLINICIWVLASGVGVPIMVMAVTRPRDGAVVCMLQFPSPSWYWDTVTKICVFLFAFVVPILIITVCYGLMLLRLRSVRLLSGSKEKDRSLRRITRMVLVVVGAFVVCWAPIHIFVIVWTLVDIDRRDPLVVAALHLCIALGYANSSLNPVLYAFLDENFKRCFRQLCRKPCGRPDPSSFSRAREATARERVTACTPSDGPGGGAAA

`CC(=O)N1CC2(CCN(C(=O)[C@@H](CCCCN)NC(=O)[C@@H](CC(C)C)NC(=O)[C@@H](Cc3ccccc3)NC(=O)[C@H](N)Cc3ccccc3)CC2)C1` [HSK21542, 7-(D-phenylalanyl-D-phenylalanyl-D-leucyl-D-lysyl)-2-acetyl-2,7-diazaspiro (3.5)nonane] showed an inhibition at 10 µM [1] of -5%, a Kp [2] of 0.001 and an inhibition at 10 µM [3] of -12%. It also gave an inhibition at 10 µM [4] of 1%, an inhibition at 10 µM (Adenosine A1) of 0% and an inhibition at 10 µM (Dopamine D1) of 3%. It also gave an inhibition at 10 µM (Chemokine CXCR2 (IL-8RB)) of 4%, an inhibition at 10 µM [5] of 10% and an inhibition at 10 µM (Adrenergic α2A) of 7%. For the same molecule, the inhibition at 10 µM (Adenosine A2A) was 3%, the inhibition at 10 µM (Histamine H1) was 4% and the inhibition at 10 µM (Muscarinic M3) was -3%. For the same molecule, the inhibition at 10 µM [6] was 2%, the inhibition at 10 µM (Adrenergic α1B) was 3% and the inhibition at 10 µM (Angiotensin AT1) was -7%. It also gave an inhibition at 10 µM (Opiate μ (OP3, MOP)) of 0%, an inhibition at 10 µM (Muscarinic M4) of 3% and an inhibition at 10 µM [7] of 7%. It also gave an inhibition at 10 µM (Adrenergic β2) of 3%, an inhibition at 10 µM (PPARγ) of 3% and an inhibition at 10 µM (Potassium Channel hERG) of 1%. For the same molecule, the inhibition at 10 µM [8] was 19%, the inhibition at 10 µM (Opiate δ1 (OP1, DOP)) was 5% and the inhibition at 10 µM (Chemokine CCR1) was -4%. For the same molecule, the inhibition at 10 µM (Progesterone PR-B) was -1% and the inhibition at 10 µM [9] was 5%.
